Read-outs that look alike come from different tables or passages of the source. Where a SMILES comes first, the peptide text is derived from it. Bridges are numbered along the chain shown (N, C = ends).
Experiments:
α2β2 nAChR = α2β2 nAChR (Rattus norvegicus, UniProt P12389+P12390); assay: cell-based
other nAChR subtypes = assay type: cell-based, rat
α9α10 nAChR = α9α10 nAChR (Rattus norvegicus, UniProt P43144+Q9JLB5); assay: cell-based
α3β4 nAChR = α3β4 nAChR (Rattus norvegicus, UniProt P04757+P12392); assay: cell-based
α3β2 nAChR = α3β2 nAChR (Rattus norvegicus, UniProt P04757+P12390); assay: cell-based; assay type: cell-based
Sequence of α3β2 nAChR (P04757 26-499 limits assumed): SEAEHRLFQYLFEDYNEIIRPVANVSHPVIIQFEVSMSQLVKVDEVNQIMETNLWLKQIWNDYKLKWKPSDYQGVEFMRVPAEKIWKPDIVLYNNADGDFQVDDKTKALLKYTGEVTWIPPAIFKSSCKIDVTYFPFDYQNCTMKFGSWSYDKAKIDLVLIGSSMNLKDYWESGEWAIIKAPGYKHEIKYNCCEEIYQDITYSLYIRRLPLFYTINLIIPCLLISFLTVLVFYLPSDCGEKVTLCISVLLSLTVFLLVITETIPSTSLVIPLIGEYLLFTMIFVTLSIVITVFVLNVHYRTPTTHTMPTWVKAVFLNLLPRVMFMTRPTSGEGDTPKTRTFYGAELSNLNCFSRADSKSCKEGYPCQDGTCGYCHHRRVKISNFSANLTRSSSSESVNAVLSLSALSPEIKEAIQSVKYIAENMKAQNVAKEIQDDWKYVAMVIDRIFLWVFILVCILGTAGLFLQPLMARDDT
Sequence of α3β2 nAChR (P12390 25-500 limits assumed): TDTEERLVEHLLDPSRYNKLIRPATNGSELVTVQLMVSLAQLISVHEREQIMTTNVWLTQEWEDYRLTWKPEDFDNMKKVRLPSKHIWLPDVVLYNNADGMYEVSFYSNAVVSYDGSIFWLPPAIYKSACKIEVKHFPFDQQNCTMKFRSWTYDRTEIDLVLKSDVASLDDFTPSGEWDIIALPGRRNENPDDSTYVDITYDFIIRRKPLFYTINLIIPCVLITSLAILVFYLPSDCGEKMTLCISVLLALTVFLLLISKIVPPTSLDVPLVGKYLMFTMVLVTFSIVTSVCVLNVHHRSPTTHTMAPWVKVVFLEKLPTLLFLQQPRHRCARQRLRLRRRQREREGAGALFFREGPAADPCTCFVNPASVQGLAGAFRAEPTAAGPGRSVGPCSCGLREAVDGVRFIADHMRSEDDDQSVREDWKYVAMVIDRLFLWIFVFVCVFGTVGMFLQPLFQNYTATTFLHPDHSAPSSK

α7 nAChR = α7 nAChR (Rattus norvegicus, UniProt Q05941); assay: cell-based
Sequence of α7 nAChR (Q05941 23-502 limits assumed): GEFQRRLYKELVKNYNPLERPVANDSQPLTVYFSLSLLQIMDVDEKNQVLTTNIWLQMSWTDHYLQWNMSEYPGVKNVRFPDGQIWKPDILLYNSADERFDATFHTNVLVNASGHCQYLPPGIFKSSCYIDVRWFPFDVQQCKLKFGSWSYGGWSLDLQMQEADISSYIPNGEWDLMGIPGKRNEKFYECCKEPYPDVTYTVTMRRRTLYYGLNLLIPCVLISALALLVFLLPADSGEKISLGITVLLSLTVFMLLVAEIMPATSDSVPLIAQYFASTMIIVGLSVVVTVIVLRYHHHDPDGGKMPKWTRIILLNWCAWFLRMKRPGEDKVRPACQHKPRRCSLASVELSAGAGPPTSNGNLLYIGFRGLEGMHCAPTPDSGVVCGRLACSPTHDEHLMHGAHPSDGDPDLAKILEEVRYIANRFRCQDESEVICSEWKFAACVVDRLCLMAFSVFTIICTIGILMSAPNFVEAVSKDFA

α6/α3β2β3 nAChR = α6/α3β2β3 nAChR (Rattus norvegicus, UniProt P04757+P12390+P12391+P43143); assay: cell-based
Sequence of α6/α3β2β3 nAChR (P04757 whole entry, looked up): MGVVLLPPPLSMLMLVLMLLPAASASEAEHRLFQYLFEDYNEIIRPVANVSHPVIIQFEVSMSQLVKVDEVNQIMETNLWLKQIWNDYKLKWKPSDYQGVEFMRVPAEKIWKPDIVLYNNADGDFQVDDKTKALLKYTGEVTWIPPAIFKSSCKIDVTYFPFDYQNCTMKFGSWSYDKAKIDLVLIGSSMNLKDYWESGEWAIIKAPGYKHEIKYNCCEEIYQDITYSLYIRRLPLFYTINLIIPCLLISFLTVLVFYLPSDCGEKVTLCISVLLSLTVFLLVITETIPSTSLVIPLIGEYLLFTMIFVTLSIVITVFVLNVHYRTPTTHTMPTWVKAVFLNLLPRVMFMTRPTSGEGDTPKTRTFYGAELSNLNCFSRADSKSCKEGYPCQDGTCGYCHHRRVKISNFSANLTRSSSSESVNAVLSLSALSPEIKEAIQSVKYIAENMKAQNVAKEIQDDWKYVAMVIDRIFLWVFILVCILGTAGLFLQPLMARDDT
Sequence of α6/α3β2β3 nAChR (P12390 whole entry, looked up): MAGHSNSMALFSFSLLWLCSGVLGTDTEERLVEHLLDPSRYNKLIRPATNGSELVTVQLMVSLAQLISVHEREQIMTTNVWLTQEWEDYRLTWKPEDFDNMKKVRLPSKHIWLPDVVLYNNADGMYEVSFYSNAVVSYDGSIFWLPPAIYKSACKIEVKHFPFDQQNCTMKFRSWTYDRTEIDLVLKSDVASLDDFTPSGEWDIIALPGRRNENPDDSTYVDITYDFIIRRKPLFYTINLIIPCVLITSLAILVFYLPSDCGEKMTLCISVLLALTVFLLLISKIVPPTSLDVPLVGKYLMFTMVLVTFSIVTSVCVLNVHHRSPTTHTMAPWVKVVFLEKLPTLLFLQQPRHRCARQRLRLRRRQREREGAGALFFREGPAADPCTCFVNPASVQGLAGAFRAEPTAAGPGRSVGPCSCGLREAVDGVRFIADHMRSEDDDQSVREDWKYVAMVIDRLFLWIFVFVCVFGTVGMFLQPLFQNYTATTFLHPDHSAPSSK
Sequence of α6/α3β2β3 nAChR (P12391 whole entry, looked up): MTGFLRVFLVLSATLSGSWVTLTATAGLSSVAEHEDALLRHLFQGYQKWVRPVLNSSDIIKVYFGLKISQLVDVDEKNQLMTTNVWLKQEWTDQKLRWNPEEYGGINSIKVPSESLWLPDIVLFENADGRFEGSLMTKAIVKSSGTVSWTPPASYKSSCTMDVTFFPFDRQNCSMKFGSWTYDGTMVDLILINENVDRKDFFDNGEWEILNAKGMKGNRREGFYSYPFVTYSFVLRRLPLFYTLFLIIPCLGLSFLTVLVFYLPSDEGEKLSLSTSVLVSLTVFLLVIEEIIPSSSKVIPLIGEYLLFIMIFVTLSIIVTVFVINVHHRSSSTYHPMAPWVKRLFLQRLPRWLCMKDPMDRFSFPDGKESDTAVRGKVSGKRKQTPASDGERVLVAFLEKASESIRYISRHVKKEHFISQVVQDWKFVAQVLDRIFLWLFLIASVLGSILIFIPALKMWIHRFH
Sequence of α6/α3β2β3 nAChR (P43143 whole entry, looked up): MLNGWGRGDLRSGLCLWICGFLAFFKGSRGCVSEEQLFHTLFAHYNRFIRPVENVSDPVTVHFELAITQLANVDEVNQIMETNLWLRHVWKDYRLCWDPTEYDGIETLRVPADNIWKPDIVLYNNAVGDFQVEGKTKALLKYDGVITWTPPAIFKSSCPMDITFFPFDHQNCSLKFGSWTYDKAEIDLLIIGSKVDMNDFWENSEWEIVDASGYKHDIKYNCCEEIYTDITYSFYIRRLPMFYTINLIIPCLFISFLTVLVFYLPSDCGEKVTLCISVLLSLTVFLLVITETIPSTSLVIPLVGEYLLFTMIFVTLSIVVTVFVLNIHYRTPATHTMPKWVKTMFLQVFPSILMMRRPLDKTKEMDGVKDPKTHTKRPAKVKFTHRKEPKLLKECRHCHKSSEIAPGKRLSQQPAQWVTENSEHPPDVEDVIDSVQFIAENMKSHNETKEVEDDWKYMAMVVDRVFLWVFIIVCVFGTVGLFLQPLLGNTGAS

α4β2 nAChR = α4β2 nAChR (Rattus norvegicus, UniProt P09483+P12390); assay: cell-based
Sequence of α4β2 nAChR (P09483 31-630 limits assumed): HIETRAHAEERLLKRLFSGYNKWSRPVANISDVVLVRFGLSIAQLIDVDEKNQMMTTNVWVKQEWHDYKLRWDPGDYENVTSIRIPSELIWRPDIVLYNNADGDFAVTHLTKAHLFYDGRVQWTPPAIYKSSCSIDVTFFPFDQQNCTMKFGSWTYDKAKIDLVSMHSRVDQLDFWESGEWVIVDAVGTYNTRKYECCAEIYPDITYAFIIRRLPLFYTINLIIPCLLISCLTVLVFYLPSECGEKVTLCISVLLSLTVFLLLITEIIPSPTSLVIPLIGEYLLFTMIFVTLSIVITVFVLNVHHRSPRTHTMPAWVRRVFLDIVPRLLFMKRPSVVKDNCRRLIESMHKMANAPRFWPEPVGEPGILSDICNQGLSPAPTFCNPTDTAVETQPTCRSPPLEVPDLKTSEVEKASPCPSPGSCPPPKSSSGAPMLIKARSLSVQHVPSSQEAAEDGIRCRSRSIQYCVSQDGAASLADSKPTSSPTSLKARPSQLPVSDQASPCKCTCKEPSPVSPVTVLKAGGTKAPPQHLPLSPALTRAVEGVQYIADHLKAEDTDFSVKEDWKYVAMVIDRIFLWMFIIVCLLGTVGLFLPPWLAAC
Sequence of α4β2 nAChR (P12390 25-500 limits assumed): as the sequence (P12390 25-500 limits assumed) above

Sequence of α9α10 nAChR (P43144 26-479 limits assumed): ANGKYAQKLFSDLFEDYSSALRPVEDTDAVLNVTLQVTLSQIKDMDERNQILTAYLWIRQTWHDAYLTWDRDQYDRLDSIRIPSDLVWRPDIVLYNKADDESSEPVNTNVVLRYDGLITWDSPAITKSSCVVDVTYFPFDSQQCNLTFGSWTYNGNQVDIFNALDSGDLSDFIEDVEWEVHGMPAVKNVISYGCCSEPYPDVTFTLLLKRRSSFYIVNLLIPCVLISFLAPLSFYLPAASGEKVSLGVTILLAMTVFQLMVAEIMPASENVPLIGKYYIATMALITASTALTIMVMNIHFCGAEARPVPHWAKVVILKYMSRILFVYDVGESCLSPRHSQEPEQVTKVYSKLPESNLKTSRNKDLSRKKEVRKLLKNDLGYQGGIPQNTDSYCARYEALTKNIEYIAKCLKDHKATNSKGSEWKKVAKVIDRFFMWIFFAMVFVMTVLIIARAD
Sequence of α9α10 nAChR (Q9JLB5 25-447 limits assumed): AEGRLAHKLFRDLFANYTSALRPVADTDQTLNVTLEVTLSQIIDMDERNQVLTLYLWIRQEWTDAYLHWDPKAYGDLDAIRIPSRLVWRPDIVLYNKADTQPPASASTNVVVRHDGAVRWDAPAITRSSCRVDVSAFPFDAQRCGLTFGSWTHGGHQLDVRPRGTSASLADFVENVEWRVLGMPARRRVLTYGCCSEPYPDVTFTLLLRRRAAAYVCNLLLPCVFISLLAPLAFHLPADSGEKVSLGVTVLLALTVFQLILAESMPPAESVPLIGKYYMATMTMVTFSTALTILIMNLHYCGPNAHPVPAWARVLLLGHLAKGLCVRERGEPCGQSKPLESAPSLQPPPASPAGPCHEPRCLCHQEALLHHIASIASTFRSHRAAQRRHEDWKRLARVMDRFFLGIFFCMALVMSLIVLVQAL

CC(C)C[C@@H]1NC(=O)[C@H](C(C)C)NC(=O)[C@H](C)NC(=O)[C@@H]2CSSC[C@H](NC(=O)CN)C(=O)N[C@@H](CSSC[C@@H](C(N)=O)NC(=O)[C@H](Cc3c[nH]cn3)NC1=O)C(=O)N[C@@H](CO)C(=O)N[C@@H]([C@@H](C)O)C(=O)N1CCC[C@H]1C(=O)N1CCC[C@H]1C(=O)N2 [AdIA] (H-GCCSTPPCAVLHC-NH2; disulfide 2-8, 3-13) was tested, and the IC50 (α2β2 nAChR) was > 10 nM, the inhibition (other nAChR subtypes) was ≤ 50% and the IC50 (other nAChR subtypes; read-out: potency) was > 10000 nM. For the same compound, the IC50 (α9α10 nAChR) was > 10 nM, the IC50 (α3β4 nAChR) was > 10 nM and the “Hill Slope” value (α3β2 nAChR) was −1.24. The IC50 (α3β2 nAChR) was 1380 nM, the “fold lower potency than at α6/α3β2β3” value (α3β2 nAChR) was “at least 8 fold” and the IC50 (α7 nAChR) was > 10 nM. For the same compound, the “Hill Slope” value (α6/α3β2β3 nAChR) was −1.14, the IC50 (α6/α3β2β3 nAChR) was 177 nM and the IC50 (α4β2 nAChR) was > 10 nM.
With C[C@@H]1NC(=O)[C@@H]2CCCN2C(=O)[C@H](Cc2c[nH]cn2)NC(=O)[C@@H]2CSSC[C@@H](C(N)=O)NC(=O)[C@H](CC(N)=O)NC(=O)[C@H](Cc3ccc(O)cc3)NC(=O)[C@H](CCCCN)NC(=O)[C@H](CCCNC(=N)N)NC(=O)CNC(=O)[C@H](CSSC[C@H](NC(=O)[C@H](CCCNC(=N)N)NC(=O)CN)C(=O)N2)NC1=O [GaIA] (H-GRCCHPACGRKYNC-NH2; disulfide 3-8, 4-14) the “Hill Slope” value (α2β2 nAChR) was −1.09, the IC50 (other nAChR subtypes; read-out: IC50) was > 1000 nM and the “Hill Slope” value (α9α10 nAChR) was −0.93. The IC50 (α9α10 nAChR) was 777 nM, the “Hill Slope” value (α3β4 nAChR) was −1.37 and the “Hill Slope” value (α3β2 nAChR) was −1.25. The “fold less potency than at muscle-type α1β1γδ” value (α3β2 nAChR) was “about 25 fold”, the “Hill Slope” value (α7 nAChR) was −1.45 and the “Hill Slope” value (α6/α3β2β3 nAChR) was −0.87. The “Hill Slope” value (α4β2 nAChR) was −1.28.

From article PMC10301793 (Marine Drugs, 2023)
